Data set [1] can be described thus: Selectivity index, ratio of IC50 for chloroquine-resistant Plasmodium falciparum W2 to IC50 for human TK10 cells. Also noted: species or system TK-10.
A further data set relates to WI-38. The experiment in a line: Selectivity index, ratio of IC50 for human WI38 cells to IC50 for human TK10 cells. It counts as functional.
Data set [2] in a line: Anticancer activity against human UACC62 cells assessed as inhibition of cell growth after 24 hrs by SRB assay. It counts as functional, cell-based. Particulars: UACC-62, 24 h. In general terms: In SRB staining, fixed cells bind dye roughly in proportion to their protein.
In data set [3] the test system is Plasmodium falciparum. In words: Antimalarial activity against chloroquine-resistant Plasmodium falciparum W2 assessed as inhibition of parasite proliferation after 96 hrs by SYBR Green I-based fluorescence method. Particulars: W2, 96 h. The data set is classed as functional, organism-based.
For a further data set, the system named is UACC-62. In words: Selectivity index, ratio of IC50 for human WI38 cells to IC50 for human UACC62 cells. It counts as functional.
Data set [4] relates to MCF7. In words: Selectivity index, ratio of IC50 for human WI38 cells to IC50 for human MCF7 cells. The data set is classed as functional.
The next data set concerns TK-10. In words: Anticancer activity against human TK10 cells assessed as inhibition of cell growth after 24 hrs by SRB assay. It counts as functional, cell-based. The note with it: TK-10, 24 h.
For data set [5], the system named is MCF7. The experiment in a line: Anticancer activity against human MCF7 cells assessed as inhibition of cell growth after 24 hrs by SRB assay. It counts as functional, cell-based. Particulars: MCF7, 24 h.
A short description of data set [6]: Resistance index, ratio of IC50 for chloroquine-resistant Plasmodium falciparum W2 to IC50 for chloroquine-sensitive Plasmodium falciparum 3D7. The data set is classed as functional.
Data set [7] in a line: Selectivity index, ratio of IC50 for chloroquine-resistant Plasmodium falciparum W2 to IC50 for human UACC62 cells. Also noted: species or system UACC-62.
Data set [8] is described as follows: Selectivity index, ratio of IC50 for human WI38 cells to IC50 for chloroquine-sensitive Plasmodium falciparum 3D7. It counts as toxicity, cell-based, WI-38. The note with it: read-out: Ratio IC50.
The nature of data set [9]: Selectivity index, ratio of IC50 for chloroquine-resistant Plasmodium falciparum W2 to IC50 for human MCF7 cells.
A short description of data set [10]: Cytotoxicity against human WI38 cells assessed as inhibition of proliferation after 24 hrs by SRB assay. It counts as cell-based. Particulars: WI-38, 24 h.
Data set [11] relates to Plasmodium falciparum. The experiment in a line: Antimalarial activity against chloroquine-sensitive Plasmodium falciparum 3D7 assessed as inhibition of parasite proliferation after 96 hrs by SYBR Green I-based fluorescence method. The data set is classed as functional, organism-based. The note with it: 3D7, 96 h.

The source of these data is ChEMBL document CHEMBL3396954, “Synthesis and in vitro biological evaluation of dihydroartemisinyl-chalcone esters” (Eur J Med Chem, 2015).

Molecules are shown by their SMILES.

As for `Cc1ccc(C(=O)/C=C/c2ccc(C(=O)O)cc2)o1`, the “Ratio IC50” value in data set [1] came out at 5.2; with WI-38, 0.4; with UACC-62 it was 0.6; in the data set on MCF7 [4] it was 1.6; in [6] it was 0.9; in data set [7], 3.3. Also, the “Ratio IC50” value in data set [9] is on record as 1.1. Also, the IC50 in data set [2] was 58 µM; in the data set on Plasmodium falciparum [3], 0.0173 µM; in the data set with TK-10 it was 90 µM; in the data set on MCF7 [5], 19.7 µM; in data set [10], 32 µM; in the data set with Plasmodium falciparum [11], 0.0183 µM. The selectivity ratio in data set [8] stood at 1.7.

By IC50 is commonly meant the concentration that gives 50% inhibition.
